No end group written: not given here.
Legend:
AN3CA cells = assay: In vivo metastasis assay (retro-orbital injection) in NOD/SCID mice; conditions: 6 weeks after injection
Procedure: All experimental procedures involving animals were conducted in accordance with the institutional guidelines set forth by the Children's Hospital Boston (CHB animal protocol number 11-09-2022). Eight to ten-week-old NOD/SCID mice were housed in a specific pathogen-free facility. To generate a xenograft mouse model, NOD/SCID mice were injected with 2×10^6 cells into right flanks. Cells were resuspended in 0.1 ml of PBS and then mix with 0.1 ml of matrigel. Two cell lines were prepared for xenografts: AN3CA and HEC-1A. Tumor sizes were measured weekly. As for metastasis mouse model, 1×10^6 AN3CA cells—were injected via the retro-orbital sinus as described previously (2). […] Cell proliferation in tumor was determined by staining histological sections with monoclonal antibody against Ki-67 (BD, Cat. No. 556003), and apoptosis was evaluated by terminal uridine deoxynucleotidyl transferase dUTP nick end labeling (TUNEL) assay (in situ cell death detection kit, Promega, Cat. No. G3250) according to manufacturer's protocol.
Next assessed was whether loss of SALL4 could affect tumor invasiveness. […] The invasive potential of these three cell lines in vitro: AN3CA, HEC-1A and Ishikawa cells was compared, and a strong association between SALL4 expression and invasive capacity was detected, with Ishikawa showing the least migration/invasion ability (data not shown). […]

SALL4A and SALL4B = assay: SALL4 knock-down in endometrial cancer cells (Western blot, qRT-PCR); assay type: cell-based, human; conditions: AN3CA and HEC-1A
Text: In brief, the expression plasmids for human SALL4A and SALL4B were constructed using FUW-Luc-mCh-puro vector (FIG. 43A). SALL4A or SALL4B mutant preserving the same amino acid sequence, but containing triple-point mutations within the SALL4shRNA1 target nucleotide sequence, which renders the transgenes resistant to SALL4 shRNA targeting, were generated using QuikChange site-directed mutagenesis kit (Stratagene) and confirmed by sequencing. Short hairpin RNAs set for human SALL4 in pLKO.1-puro vector were purchased from Open Biosystems (RHS3979) and knockdown efficiency was further evaluated. Two of them, designated as SALL4shRNA1 and SALL4shRNA 2, were selected for subsequent experiments. The sequences for SALL4 shRNAs and Scramble shRNA are listed as following: SALL4shRNA1: […] (SEQ ID NO: 3); SALL4shRNA 2: CTATTTAGCCAAAGGCAAA (SEQ ID NO: 2); Scr-shRNA: […] (SEQ ID NO: 14)
To assess the biological functional role of SALL4 in endometrial cancer, first evaluated was SALL4 expression in a panel of six endometrial cancer cell lines using quantitative real-time PCR to select for appropriate models for our functional studies (FIG. 40). […]

SNU-398 = assay: Cellular uptake of FITC-labeled peptide; assay type: cell-based, human; conditions: SNU-398, with Chariot
Procedure: (§1) Cells were grown typically in 6 well plates (35 mm dish) to 50-70% confluence. Usually the transfect ion efficiency is somehow cell type specific. 2 mM peptide was diluted 4 times in PBS (2 ul+6 ul) (For FITC peptidedo not dilute the 2 mM stock). For each transfection reaction tube with 100 ul PBS+1 ul diluted peptide was set up. Chariot reagent was diluted 1:10 in ddH2O and for each transfection a 94 ul H2O tube+6 ul diluted Chariot was prepared (No master mix for more than 4 transfections). The 2 tubes were carefully mixed by pipetting up and down and incubated 30 min. at room temperature. Medium was aspirated from the dish (well) and cells were overlay with the mix. 400 ul serum free medium was added and cells were incubated further for 1 h 37 C (cell incubator). 500 ul complete medium (with 10% serum) was finally added. If cells are not very sensitive to serum starvation (cancer cell lines) 5% serum could be used.
(§2) Fluorescent and Confocal microscopy was performed on cells treated with FITC labeled peptides with or without of transfection reagent depending on the cell type. Cells were mounted on cover slips using mounting media with DAPI (Invitrogen) and in some cases cytoskeleton dye (Invitrogen).
(§3) In order to evaluate their cellular uptake and localization, the N terminus of these peptides was labeled with fluorescein isothiocyanate (FITC). Despite the net positive charge of these peptides, their uptake by the cells is cell-type specific. Some cell lines such as HL-60 (an AML cell line) allowed the peptide to enter the cells without any modification or carrier, and some cell lines were not penetrable at all. In order to achieve a similar level of peptide delivery in most cell types, a Chariot Transfection Reagent (Active Motif) was used as a peptide carrier, as directed from the manufacturer. All cell types used in the study described herein were subjected to individual evaluation of the percentage of the cells in which the peptide was delivered as well as the duration of time during which they sustained the labeled peptide in the cells. After Chariot treatment, confocal microscopy studies confirmed uptake of these peptides throughout the cell, including nuclei (as evidenced by DAPI overlay, FIG. 1B).
Next tested was the cellular uptake and localization of these peptides in various types of cells using FITC-labeled wild type or scrambled peptides. Despite the net positive charge of these peptides, their penetration into cells is cell type-specific. Some cell lines, such as HL-60 (an AML cell line), allowed peptide entry without any modification or facilitator, while others such as SNU-398 were not penetrable at all. […] The overall success rate of peptide uptake by the cells was above 95% with Pep-1, as evaluated by flow cytometry (FIG. 9A). […]

AML = assay: Cellular uptake of FITC-labeled peptide; assay type: cell-based, human; conditions: with Chariot
Procedure: as §1, §2, §3

HL60 = assay: Cellular uptake of FITC-labeled peptide; assay type: cell-based, human; conditions: HL60, no carrier
Procedure: as §1, §2, §3

SNU387 = assay: Cellular uptake of FITC-labeled peptide; assay type: cell-based, human; conditions: SNU387, with Chariot
Procedure: as §1, §2, §3

HuH-7 = assay: Cellular uptake of FITC-labeled peptide; assay type: cell-based, human; conditions: HuH-7, with Chariot
Procedure: as §1, §2, §3

MCF7 = assay: Cellular uptake of FITC-labeled peptide; assay type: cell-based; conditions: MCF7, with Chariot
Procedure: as §1, §2, §3

KG1a = assay: Cellular uptake of FITC-labeled peptide; assay type: cell-based; conditions: no carrier
Procedure: as §1, §2, §3

AML3 = assay: Cellular uptake of FITC-labeled peptide; assay type: cell-based; conditions: AML3, no carrier
Procedure: as §1, §2, §3

CD34+ = assay: Cellular uptake of FITC-labeled peptide; assay type: cell-based; conditions: with Chariot
Procedure: as §1, §2, §3

SNU398 cells = conditions: after addition to cell culture plates
Text: Confocal microscopy was next used to study cellular uptake of TAT-WT by SNU398 cells in vitro.

Sequence: CCTAAGGTTAAGTCGCCCTCG [scramble shRNA]
- metastatic tumor formation (AN3CA cells): Four out of five

Sequence: GCCTTGAAACAAGCCAAGCTA (expressed or natural sequence) [SALL4-sh1]
- down-regulation of SALL4A and SALL4B (SALL4A and SALL4B): could down-regulate SALL4A and SALL4B efficiently

Sequence: MSRRAQAKPQHI [Mut peptide, MSRRAQAKPQHI, reference compound]
- peptide uptake (cells with peptide) (SNU-398): 60% (Ch)
- peptide uptake (cells with peptide) (AML): 50% (Ch)
- peptide uptake (cells with peptide) (HL60): ~50%
- peptide uptake (cells with peptide) (SNU387): 60% (Ch)
- peptide uptake (cells with peptide) (HuH-7): 60% (ch)
- peptide uptake (cells with peptide) (MCF7): 70% (Ch)
- peptide uptake (cells with peptide) (KG1a): >15%
- peptide uptake (cells with peptide) (AML3): ~10%
- peptide uptake (cells with peptide) (CD34+): 50% (Ch)

Sequence: YGRKKRRQRRRMSRRKQAKPHI [TAT-WT, NH2-YGRKKRRQRRR-MSRRKQAKPHI-COOH]
- time to localization within the nucleus (SNU398 cells): ≤ 15 min

— US9365851B2, “Spalt-like transcription factor 4 (SALL4) and uses thereof” (National University of Singapore, priority 2011, dated 2016)
